Consider two compounds from patent US20090226408A1, “ANTI-FATIGUE COMPOSITION” (KANEKA CORPORATION, priority 2005, published 2009).

The structures appear in SMILES notation.

The test system of the experiment is Sprague-Dawley male rats. Nature of the experiment: Treadmill test using young rat (maximum running time). It is filed as in vivo. To be noted: reduced coenzyme Q10 100 mg/kg, lipoic acid 30 mg/kg; for extension of the maximum running time (after the sample administration relative to before the administration), Average: Sprague-Dawley male rats 7 to 10 week old, oral in 0.5% CMC-Na, before vs three hours after administration; for extension of the maximum running time, significance: single agents: before vs after administration, combination: compared to control group, oral, three hours after administration. As to the method: Using Sprague-Dawley male rats (7 to 10 week old, n=20), anti-fatigue effects brought about by reduced coenzyme Q10 alone (about 2% of oxidized coenzyme Q10 included), lipoic acid alone, and combination use of reduced coenzyme Q10 and lipoic acid were evaluated with a treadmill. In the test, rats were run at a speed of 10 m/min using a treadmill apparatus (model NK-73-4 made by Natume Seisakusho Co., Ltd.), and the speed was increased stepwise, by 5 m/min every 3 min, and the time when the rats became unable to run (maximum running time) was measured.
As substances to be tested, 0.5% sodium carboxymethylcellulose (CMC-Na) aqueous solutions of reduced coenzyme Q10 (about 2% oxidized coenzyme Q10 included) or lipoic acid (α-lipoic acid (manufactured by Tokyo Chemical Industry Co., Ltd.)) were each prepared and the solutions were orally administered to rats at a dose of 100 mg/kg for reduced coenzyme Q10 or at a dose of 30 mg/kg for lipoic acid. Rats were divided into four groups of a solvent administered group, reduced coenzyme Q10 only administered group, lipoic acid only administered group, and a reduced coenzyme Q10 and lipoic acid combined group (reduced coenzyme Q10 and lipoic acid were administered almost simultaneously). The maximum running time was measured before and three hours after the administration and an extension of the maximum running time (after the sample administration relative to before the administration) was calculated. A 0.5% CMC-Na aqueous solution was administered to the control group.

For the compound `O=C(O)CCCCC1CCSS1` (stereo not shown) [Lipoic acid, 1,2-dithioran-3-pentanoic acid], the “extension of the maximum running time (after the sample administration relative to before the administration), Average” value was determined as 7.3 s and the “extension of the maximum running time, significance” value is recorded as “no significant extension”.
With `COc1c(O)c(C)c(C/C=C(\C)CC/C=C(\C)CC/C=C(\C)CC/C=C(\C)CC/C=C(\C)CC/C=C(\C)CC/C=C(\C)CC/C=C(\C)CC/C=C(\C)CCC=C(C)C)c(O)c1OC` [Reduced coenzyme Q10, reduced coenzyme Q10], the “extension of the maximum running time (after the sample administration relative to before the administration), Average” value worked out at 17.5 s and the “extension of the maximum running time, significance” value was “no significant extension”.
